{"source": "patent US5401749A", "about": "“9-amino-1,4ethano-1,2,3,4-tetrahydroacridine and related compounds” (Hoechst-Roussel Pharmaceuticals Inc., priority 1988, dated 1995)", "key": {"Acetylcholinesterase": {"biological_target": "Acetylcholinesterase (Homo sapiens, UniProt P22303)", "sequence (P22303 32-614)": "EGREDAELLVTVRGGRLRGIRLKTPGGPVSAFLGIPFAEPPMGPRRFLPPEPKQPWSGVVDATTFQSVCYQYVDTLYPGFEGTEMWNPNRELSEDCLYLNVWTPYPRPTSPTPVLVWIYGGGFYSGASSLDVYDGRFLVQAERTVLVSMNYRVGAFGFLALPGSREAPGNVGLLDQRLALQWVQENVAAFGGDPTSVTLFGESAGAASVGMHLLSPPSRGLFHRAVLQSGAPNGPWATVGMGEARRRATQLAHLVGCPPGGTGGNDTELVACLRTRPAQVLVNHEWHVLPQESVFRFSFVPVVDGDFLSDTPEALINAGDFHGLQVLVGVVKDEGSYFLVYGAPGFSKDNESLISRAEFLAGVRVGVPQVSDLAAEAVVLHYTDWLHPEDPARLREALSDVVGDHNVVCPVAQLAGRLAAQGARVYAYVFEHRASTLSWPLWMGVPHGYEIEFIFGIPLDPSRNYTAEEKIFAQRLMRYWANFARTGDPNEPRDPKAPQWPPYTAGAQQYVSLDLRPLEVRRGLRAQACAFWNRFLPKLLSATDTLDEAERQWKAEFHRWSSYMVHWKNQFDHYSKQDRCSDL", "test": "Acetylcholinesterase Inhibition Assay (photometric method of Ellman et al.)", "format": "biochemical"}, "[1]": {"test_system": "Scopolamine Induced Memory Deficit", "test": "Dark Avoidance Assay (reversal of scopolamine induced memory deficit)", "format": "in vivo", "settings": "mice, s.c., tested again after 24 hours", "method": "This utility can also be ascertained by determining the ability of these compounds to restore cholinergically deficient memory in the Dark Avoidance Assay. In this assay mice are tested for their ability to remember an unpleasant stimulus for a period of 24 hours. A mouse is placed in a chamber that contains a dark compartment; a strong incadescent light drives it to the dark compartment, where an electric shock is administered through metal plates on the floor. The animal is removed from the testing apparatus and tested again, 24 hours later, for the ability to remember the electric shock.\nIf scopolamine, an anticholinergic that is known to cause memory impairment, is administered before an animal's initial exposure to the test chamber, the animal re-enters the dark compartment shortly after being placed in the test chamber 24 hours later. This effect of scopolamine is blocked by an active test compound, resulting in a greater interval before re-entry into the dark compartment.\nThe test results are expressed as the percent of a group of animals in which the effect of scopolamine is blocked, as manifested by an increased interval between being placed in the test chamber and re-entering the dark compartment. Results of Dark Avoidance Assay for some of the compounds of this invention are presented in Table 2 along with a result for a reference compound."}, "[2]": {"settings": "photometric method of Ellman et al., read-out: Acetylcholinesterase Inhibition IC50"}}, "note": "Read-outs that look alike come from different tables or passages of the source."}
{"smiles": "Nc1c2c(nc3ccccc13)C1C=CC2CC1", "note": "(centres unmarked) [9-Amino-1,4-dihydro-1,4-ethanoacridine]", "values": [{"measurement": "IC50", "setting": "Acetylcholinesterase; [2]", "value": 1.4, "unit": "µM"}]}
{"smiles": "Nc1c2c(nc3ccccc13)C1CCC2CC1", "note": "[9-Amino-1,4-ethano-1,2,3,4-tetrahydroacridine]", "values": [{"measurement": "IC50", "setting": "Acetylcholinesterase; [2]", "value": 6.6, "unit": "µM"}]}
{"smiles": "Nc1c2c(nc3cc(C(F)(F)F)ccc13)C1CCC2C1", "note": "(centres unmarked) [9-Amino-1,4-methano-1,2,3,4-tetrahydro-6-trifluoromethylacridine]", "values": [{"measurement": "IC50", "setting": "Acetylcholinesterase", "value": 4, "unit": "µM"}, {"measurement": "% of Animals with Scopolamine Induced Memory Deficit Reversal", "setting": "[1]; 0.16 mg/kg of body weight", "value": 20, "unit": "%"}]}
{"smiles": "Nc1c2c(nc3ccccc13)C1CCC2C1", "note": "(centres unmarked) [9-Amino-1,4-methano-1,2,3,4-tetrahydroacridine]", "values": [{"measurement": "% of Animals with Scopolamine Induced Memory Deficit Reversal", "setting": "[1]; 2.5 mg/kg of body weight", "value": 40, "unit": "%"}]}
{"smiles": "Cc1ccc2c(N)c3c(nc2c1)C1CCC3C1", "note": "(centres unmarked) [9-Amino-1,4-methano-6-methyl-1,2,3,4-tetrahydroacridine]", "values": [{"measurement": "IC50", "setting": "Acetylcholinesterase", "value": 0.3, "unit": "µM"}, {"measurement": "% of Animals with Scopolamine Induced Memory Deficit Reversal", "setting": "[1]; 2.5 mg/kg of body weight", "value": 36, "unit": "%"}]}
{"smiles": "Nc1c2c(nc3cc(F)ccc13)C1CCC2C1", "note": "(centres unmarked) [9-Amino-6-fluoro-1,4-methano-1,2,3,4-tetrahydroacridine]", "values": [{"measurement": "IC50", "setting": "Acetylcholinesterase", "value": 0.08, "unit": "µM"}, {"measurement": "% of Animals with Scopolamine Induced Memory Deficit Reversal", "setting": "[1]; 0.63 mg/kg of body weight", "value": 9, "unit": "%"}]}
{"smiles": "C1=CC2CCC1c1nc3ccccc3c(NCc3ccccc3)c12", "note": "(centres unmarked) [9-Benzylamino-1,4-dihydro-1,4-ethanoacridine]", "values": [{"measurement": "IC50", "setting": "Acetylcholinesterase; [2]", "value": 52, "unit": "µM"}]}
{"smiles": "c1ccc(CNc2c3c(nc4ccccc24)C2CCC3CC2)cc1", "note": "[9-Benzylamino-1,4-ethano-1,2,3,4-tetrahydroacridine]", "values": [{"measurement": "IC50", "setting": "Acetylcholinesterase; [2]", "value": 78, "unit": "µM"}]}
{"smiles": "FC(F)(F)c1ccc2c(NCc3ccccc3)c3c(nc2c1)C1CCC3C1", "note": "(centres unmarked) [9-Benzylamino-1,4-methano-1,2,3,4-tetrahydro-6-trifluoromethylacridine]", "values": [{"measurement": "IC50", "setting": "Acetylcholinesterase; [2]", "value": "> 1000", "unit": "µM"}]}
{"smiles": "c1ccc(CNc2c3c(nc4ccccc24)C2CCC3C2)cc1", "note": "(centres unmarked) [9-Benzylamino-1,4-methano-1,2,3,4-tetrahydroacridine]", "values": [{"measurement": "IC50", "setting": "Acetylcholinesterase; [2]", "value": "> 1000", "unit": "µM"}]}
{"smiles": "Cc1ccc2c(NCc3ccccc3)c3c(nc2c1)C1CCC3C1", "note": "(centres unmarked) [9-Benzylamino-1,4-methano-6-methyl-1,2,3,4-tetrahydroacridine]", "values": [{"measurement": "IC50", "setting": "Acetylcholinesterase; [2]", "value": 31, "unit": "µM"}]}
{"smiles": "c1ccc(Nc2c3c(nc4ccccc24)C2CCC3C2)cc1", "note": "(centres unmarked) [9-Phenylamino-1,4-methano-1,2,3,4-tetrahydroacridine]", "values": [{"measurement": "IC50", "setting": "Acetylcholinesterase", "value": "> 1000", "unit": "µM"}, {"measurement": "% of Animals with Scopolamine Induced Memory Deficit Reversal", "setting": "[1]; 0.16 mg/kg of body weight", "value": 20, "unit": "%"}]}
{"smiles": "CNC(=O)Oc1ccc2c(c1)[C@]1(C)CCN(C)[C@@H]1N2C", "note": "[Physostigmine, reference compound]", "values": [{"measurement": "% of Animals with Scopolamine Induced Memory Deficit Reversal", "setting": "[1]; 0.31 mg/kg of body weight", "value": 20, "unit": "%"}]}
